Results on two compounds are retold here after US8071593B2, “2-oxo-3-benzylbenzoxazol-2-one derivatives and related compounds as Met kinase inhibitors for the treatment of tumours” (Merck Patent Gesellschaft mit beschrankter Haftung, priority 2007, dated 2011).

For orientation: melting point means the temperature, or range, at which the solid turns liquid. What is called IC50 is the concentration that inhibits the measured activity by half.

One data set deals with Met kinase (Homo sapiens, UniProt P08581). Put plainly: Met kinase inhibition (cell assay). The data set is classed as cell-based.
Met kinase, sequence (P08581 25-1390): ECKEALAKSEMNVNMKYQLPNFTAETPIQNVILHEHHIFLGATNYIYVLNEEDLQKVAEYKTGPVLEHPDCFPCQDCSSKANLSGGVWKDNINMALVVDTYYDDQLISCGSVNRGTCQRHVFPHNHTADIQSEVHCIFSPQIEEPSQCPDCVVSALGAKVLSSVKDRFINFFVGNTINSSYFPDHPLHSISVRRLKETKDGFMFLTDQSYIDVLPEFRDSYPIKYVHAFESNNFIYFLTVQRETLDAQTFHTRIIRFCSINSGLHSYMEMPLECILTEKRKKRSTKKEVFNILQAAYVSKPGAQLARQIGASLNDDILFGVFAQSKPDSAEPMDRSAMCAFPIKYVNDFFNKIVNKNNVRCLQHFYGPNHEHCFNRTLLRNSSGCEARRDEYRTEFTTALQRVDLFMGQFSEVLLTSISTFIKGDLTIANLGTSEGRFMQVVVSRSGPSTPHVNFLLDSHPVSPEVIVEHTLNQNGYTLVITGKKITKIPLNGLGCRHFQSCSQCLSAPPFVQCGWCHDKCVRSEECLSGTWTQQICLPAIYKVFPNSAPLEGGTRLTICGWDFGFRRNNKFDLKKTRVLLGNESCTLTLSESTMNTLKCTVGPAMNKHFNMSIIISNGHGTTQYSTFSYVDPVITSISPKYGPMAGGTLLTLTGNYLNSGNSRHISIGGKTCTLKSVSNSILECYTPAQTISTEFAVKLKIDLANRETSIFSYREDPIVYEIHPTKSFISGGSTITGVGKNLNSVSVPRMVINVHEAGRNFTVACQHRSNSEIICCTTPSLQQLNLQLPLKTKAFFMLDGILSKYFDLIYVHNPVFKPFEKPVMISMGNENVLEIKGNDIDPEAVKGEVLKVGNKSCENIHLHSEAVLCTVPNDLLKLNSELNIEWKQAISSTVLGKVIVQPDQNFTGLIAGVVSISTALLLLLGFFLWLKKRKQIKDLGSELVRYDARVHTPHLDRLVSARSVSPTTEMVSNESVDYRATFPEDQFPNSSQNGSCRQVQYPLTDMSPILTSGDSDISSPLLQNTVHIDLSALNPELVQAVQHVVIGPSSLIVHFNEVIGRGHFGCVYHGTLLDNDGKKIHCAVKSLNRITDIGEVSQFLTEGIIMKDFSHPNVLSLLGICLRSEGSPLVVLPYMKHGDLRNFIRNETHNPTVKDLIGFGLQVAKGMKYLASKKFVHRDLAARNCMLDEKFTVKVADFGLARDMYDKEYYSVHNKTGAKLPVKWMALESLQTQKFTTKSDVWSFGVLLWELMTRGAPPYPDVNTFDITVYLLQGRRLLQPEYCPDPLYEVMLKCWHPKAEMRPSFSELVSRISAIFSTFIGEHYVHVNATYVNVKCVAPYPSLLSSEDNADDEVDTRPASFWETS

Each structure is given as a SMILES string. Structures can show the parent of a compound that is named as a salt.

`CN(C)CCNC(=O)C(=O)Nc1cccc(Cn2c(=O)oc3cc(Cl)ccc32)c1` (as salt: hydrochloride) [Compound A141, N-[3-(6-chloro-2-oxobenzoxazol-3-ylmethyl)phenyl]-N′-(2-dimethylaminoethyl)oxalamide]: the melting point stood at 273 °C.

On to `COC(=O)c1ccc2oc(=O)n(Cc3cccc(-c4ncc(OCCCN(C)C)cn4)c3)c2c1` [Compound A64, methyl 3-{3-[5-(3-dimethylaminopropoxy)pyrimidin-2-yl]-benzyl}-2-oxo-2,3-dihydrobenzoxazole-5-carboxylate], for which the melting point was 125 °C. This compound returned an IC50 on Met kinase of 10 to 1000 nM.
